Peptide text beside a SMILES is read from it.

This experiment deals with T1, ACE derived from bovine lung (Bos taurus, UniProt P12820).
T1 construct: ACE derived from bovine lung; host or cells: bovine lung tissue
T1 sequence (P12820 29-1306): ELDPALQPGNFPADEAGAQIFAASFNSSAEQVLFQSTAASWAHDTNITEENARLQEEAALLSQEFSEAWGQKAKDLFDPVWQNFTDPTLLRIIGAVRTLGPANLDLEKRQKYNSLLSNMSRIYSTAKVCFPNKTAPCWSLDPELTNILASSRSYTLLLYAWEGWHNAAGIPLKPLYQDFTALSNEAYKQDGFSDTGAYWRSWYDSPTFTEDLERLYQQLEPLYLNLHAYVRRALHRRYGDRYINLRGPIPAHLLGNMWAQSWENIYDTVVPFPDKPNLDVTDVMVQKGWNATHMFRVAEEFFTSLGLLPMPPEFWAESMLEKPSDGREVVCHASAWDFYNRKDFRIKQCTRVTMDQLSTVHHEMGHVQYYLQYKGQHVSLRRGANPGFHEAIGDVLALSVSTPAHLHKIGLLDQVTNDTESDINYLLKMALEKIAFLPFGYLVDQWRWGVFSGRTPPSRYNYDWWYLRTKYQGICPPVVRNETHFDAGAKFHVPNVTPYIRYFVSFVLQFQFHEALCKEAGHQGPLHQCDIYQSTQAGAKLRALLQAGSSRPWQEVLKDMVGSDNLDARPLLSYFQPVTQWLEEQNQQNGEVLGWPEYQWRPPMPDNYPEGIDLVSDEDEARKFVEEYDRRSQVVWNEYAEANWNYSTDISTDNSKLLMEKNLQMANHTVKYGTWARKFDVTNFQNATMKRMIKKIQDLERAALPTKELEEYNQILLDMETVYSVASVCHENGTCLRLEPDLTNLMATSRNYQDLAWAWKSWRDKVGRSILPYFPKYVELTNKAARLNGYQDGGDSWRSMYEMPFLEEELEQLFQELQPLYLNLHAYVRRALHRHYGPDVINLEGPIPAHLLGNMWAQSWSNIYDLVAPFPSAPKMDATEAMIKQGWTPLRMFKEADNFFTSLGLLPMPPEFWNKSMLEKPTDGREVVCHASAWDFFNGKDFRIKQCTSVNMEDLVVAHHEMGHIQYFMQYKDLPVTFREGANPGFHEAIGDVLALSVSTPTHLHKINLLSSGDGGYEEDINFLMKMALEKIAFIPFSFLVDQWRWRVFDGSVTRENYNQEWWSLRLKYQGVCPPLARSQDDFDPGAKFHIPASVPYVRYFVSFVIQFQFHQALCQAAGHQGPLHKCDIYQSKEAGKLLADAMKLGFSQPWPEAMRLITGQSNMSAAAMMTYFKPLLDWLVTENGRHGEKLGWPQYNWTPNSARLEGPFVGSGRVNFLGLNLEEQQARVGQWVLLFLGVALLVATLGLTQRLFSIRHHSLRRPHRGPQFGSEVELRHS
Description: Evaluation of ACE inhibitory activity (hippuryl-histidyl-leucine substrate, absorbance at 228 nm). The class given is biochemical. The settings on record: peptide concentration at which ACE inhibitory effect was 50%; 37° C., 30 minutes, pH 8.3 borate buffer. The protocol: Solutions of each of these peptides at various concentrations were prepared, and measured for the ACE inhibitory activity in accordance with the method discussed below. The peptide concentration (μM) at which the ACE inhibitory effect was 50% was taken as IC50 value.
<Evaluation of ACE Inhibitory Activity>
ACE derived from bovine lung (manufactured by WAKO PURE CHEMICAL […], LTD.) was dissolved in a 0.1M borate buffer at pH 8.3 in an amount of 0.1 U, to obtain an ACE solution. […] Subsequently, the reaction was terminated by adding 250 μl of 1N hydrochloric acid (manufactured by WAKO PURE CHEMICAL […], LTD.). 1.7 ml of ethyl acetate (manufactured by WAKO PURE CHEMICAL […], LTD.) was then added, and stirred. 1.4 ml of the ethyl acetate layer was taken, placed in another tube, and evaporated at 120° C. for about 60 minutes to obtain a dried product. The dried product was dissolved in 1 ml of distilled water, and the absorbance at 228 nm of hippuric acid extracted with ethyl acetate was measured. As controls, absorbance was measured of a solution without the diluted solution and a solution without the diluted solution and the ACE solution. From the obtained absorbance, ACE inhibitory activity was calculated in accordance with the following formula. ACE inhibitory activity (%)=[(A−B)/A]×100 • A: (Absorbance of solution without diluted solution but with ACE solution)—(Absorbance of solution without diluted solution and ACE solution)
B: (Absorbance of solution with diluted solution and ACE solution)—(Absorbance of solution with diluted solution but without ACE solution)

For orientation: IC50 means the concentration that inhibits the measured activity by half. A high value points to weaker potency. Turning to `N[C@@H](CCC(=O)O)C(=O)N1CCC[C@H]1C(=O)O` [Glu-Pro] (H-Glu-Pro-OH; N-terminus and C-terminus assumed), the IC50 is 175 µM.
In the case of `CC[C@H](C)[C@H](N)C(=O)N1CCC[C@H]1C(=O)O` [Ile-Pro] (H-Ile-Pro-OH; N-terminus and C-terminus assumed) it was 444 µM; in that of `CSCC[C@H](N)C(=O)N1CCC[C@H]1C(=O)O` [Met-Pro] (H-Met-Pro-OH; N-terminus and C-terminus assumed), 135 µM.
Take `NC(N)=NCCC[C@H](N)C(=O)N1CCC[C@H]1C(=O)O` [Arg-Pro] (H-Arg-Pro-OH): the IC50 is 275 µM.
Consider `NC(=O)CC[C@H](N)C(=O)N1CCC[C@H]1C(=O)O` [Gln-Pro] (H-Gln-Pro-OH), for which the IC50 was found to be 65.8 µM.
